Patent US20170115265A1, “Use of Visibly Detectable Compounds as Performance Reference Compounds in Passive Sampling Devices” (Geosyntec Consultants, Inc., priority 2015, published 2017)
Where two headings read alike, the source gives them in different places.

Assays:
[1] = cited from earlier work; for Log KOW: source not stated; for Log KOW value: drugs, reported by Scheytt et al. 2005; for Log KOW value (may be estimate): common dyes, Table 1, values said to be known
[2] = Example 1: elimination of PRCs from PE passive sampling devices deployed 14 days in marine aquatic sediment; type: physicochemical; conditions: PE PSD at Station 6, marine sediment
Excerpt: Twenty PSDs were created (each consisting of a 4×10 cm piece of PE). Ten of the PSDs were spiked with PCB-36 (which is not visibly detectable) and ten of the PSDs were spiked with Sudan III, a visibly detectable PRC within the scope of the present disclosure. The 20 spiked PSDs then were inserted in the top 10 cm of aquatic sediment at a marine (ocean) site by scuba divers at ten locations within a half-acre area. At each of the 10 locations, one PSD containing PCB-36 and one PSD containing Sudan III were deployed.
After 14 days, the PSDs were collected by divers, brought to the surface, placed in a shipping container, and sent to a laboratory, where they were wiped with moistened tissues, placed in small vials, and extracted with solvent. […] The 13 solvents (from extraction of 10 exposed PSDs and 3 trip blanks PSDs) into which the PCB-36-spiked PSDs were extracted were then measured for PCBs using high-resolution gas chromatography/high-resolution mass spectrometry with an approximate 30- to 60-minute analysis time per sample. Via this analysis, the concentrations of PCB-36 in the 13 PCB-36-spiked PSDs were determined. […] Via this analysis, the concentration of Sudan III in the 13 Sudan III-spiked PSDs was determined. […]

[3] = Example 7: elimination of dye PRCs from PE PSDs in jars of sediment and water agitated 14 days on a shaker table; type: physicochemical; conditions: PE PSD
Excerpt: Two additional 3×3 cm PSDs were spiked with 10 unlabeled PCB PRCs that are not visibly detectable, but are routinely used as PRCs in passive sampling applications.
The five jars containing the PSDs were closed and agitated for a period of 14 days on a shaker table. The other four dye-spiked PSDs and PCB-spiked PSD were held in storage. Following retrieval of the PSDs deployed in the sediment after 14 days, the PSDs were extracted in solvent (e.g., 50-mL mixture of hexane and methylene chloride). […] Concentrations of these dyes in the PE could be calculated assuming a known mass of each PE piece. The solvent extracts of the PSDs that had been exposed to the sediment for 14 days and held in storage for 14 days would be measured for PCBs using high-resolution gas chromatography/high-resolution mass spectrometry with an approximate 30- to 60-minute analysis time per sample.
(§1) A linear regression model would then be estimated using the Log10 ke values as the dependent variable (y axis) and the Log10 KPE values as the independent variable […].

[4] = Example 2: hypothetical 28-day sediment deployment of PE PSD spiked with three dye PRCs; type: physicochemical; conditions: for Log10-transformed ke (hypothetical) / ke (hypothetical): PE PSD 28 days in sediment
Excerpt: Two PSD could be created (each consisting of a 4×10 cm piece of PE).
The KPE values of the 3 dyes are dissimilar to that of PCB-60, yet they may be used to provide a ke for PCB-60 according to the following approach. One PSD containing the three above dyes would be deployed into sediment for a period of 28 days, and the other PSD containing the three above dyes would be held in storage. Following retrieval of the PSD deployed in the sediment, both PSDs would be extracted in solvent (e.g., 50-mL mixture of hexane and methylene chloride). […] Concentrations of these dyes in the PE could be calculated assuming a known mass of each PE piece. The solvent extract of the PSD that had been exposed to the sediment for 28 days would be measured for PCBs using high-resolution gas chromatography/high-resolution mass spectrometry with an approximate 30- to 60-minute analysis time per sample. Via this analysis, the concentration of PCB-60 in the PSD that had been exposed to the sediment for 28 days could be determined.
as §1
FIG. 2 is a line graph showing this equation plotted as Log10 Ke (day-1) versus Log10 KPE (liters/kg/PE). […] By using the equation from the plot shown in FIG. 2, the predicted ke value of PCB-60 could be interpolated from its known KPE value.

[5] = Example 8: Sudan III elimination from PE PSDs, marine sediment versus agitated sediment, 14 days; type: physicochemical
Procedure: Six 3×3 cm PSDs and fourteen 4×10 cm PSDs were spiked with Sudan III dye. Eleven of the larger (4×10 cm) PSDs were inserted in the top 10 cm of aquatic sediment at a marine (ocean) site by scuba divers at ten locations within a half-acre area. Three of the smaller (3×3 cm) PSDs were deployed into […] 8-oz jars containing approximately 100 g (wet weight) sediment and 150 mL water. The three jars containing the PSDs were closed and agitated for a period of 14 days on a shaker table. […] The solvents from the PSDs were analyzed on a benchtop UV/Vis spectrophotometer at wavelengths of 465 nm (to indicate the concentration of Sudan III in the solvent). Concentrations of these dyes in the PE could be calculated assuming a known mass of each PE piece.
Using the average concentrations of Sudan III in the unexposed PSDs (to represent the t=0 concentration) and the concentration of Sudan III in the PSDs that had been exposed to the marine sediment and agitated sediment for 14 days (the time t concentrations), one could estimate the ke values using the equation provided in Example 1. […] Thus, the dye approach can be used to quantify the increase in sampling rates for various methods (i.e., unagitated deployments, various types of agitated deployments), and provides a low cost and efficient method compared to other PRCs.

[6] = polyethylene-water partition coefficient (KPE) of PCBs according to Smedes et al.; type: physicochemical; conditions: Log10 of the cited KPE
Excerpt: Assuming the KPE values are roughly similar (i.e., within 10%) between the dye and the analyte of interest, the dye could also be an appropriate PRC to use for other compounds. For example, given that KPE Sudan III KPE is 390,000 L/kg, Sudan III could be used as a PRC for compounds with KPE values from 350,000 L/kg to 430,000 L/kg.

Oc1ccc2ccccc2c1N=Nc1ccccc1 [Sudan I]
Log KOW ([1]; dye compounds of Table 2): 5.5

O=C(O)Cc1ccccc1Nc1c(Cl)cccc1Cl [Diclofenac]
Log KOW value [1]: 1.9

Oc1ccc2ccccc2c1N=Nc1ccc(N=Nc2ccccc2)cc1 [Sudan III]
elimination rate ke [2]: 0.032 day⁻¹ | ke [3]: 0.046 day⁻¹ | Log10-transformed ke (hypothetical) [4]: −1.4 day^−1 | ke (hypothetical) [4]: 0.04 day⁻¹ | average ke ([5]; agitated sediment (shaker table)): 0.094 day⁻¹ | average ke ([5]; marine sediment (unagitated)): 0.030 day⁻¹ | Log KOW ([1]; dye compounds of Table 2): 5.7 | Log KOW ([1]; dye compounds of Table 4): 5.7

Cc1ccc(Nc2ccc(O)c3c2C(=O)c2ccccc2C3=O)cc1 [Solvent Violet 13]
ke [3]: 0.16 day⁻¹ | Log10-transformed ke (hypothetical) [4]: -1.7 day^−1 | ke (hypothetical) [4]: 0.02 day⁻¹ | Log KOW ([1]; dye compounds of Table 2): 6.2 | Log KOW ([1]; dye compounds of Table 4): 6.2

Cc1c(C(C)C)c(=O)n(-c2ccccc2)n1C [Propyphenazone]
Log KOW value [1]: 2.02

CCN(CC)c1ccc2c(-c3ccccc3C(=O)O)c3ccc(=[N+](CC)CC)cc-3oc2c1.[Cl-] [Rhodamine B]
Log KOW ([1]; dye compounds of Table 2): 1.8

Oc1ccc(N=Nc2ccccc2)c(O)c1 [Sudan Orange G]
ke [3]: 0.41 day⁻¹ | Log10-transformed ke (hypothetical) [4]: −0.1 day^−1 | ke (hypothetical) [4]: 0.8 day⁻¹ | Log KOW ([1]; dye compounds of Table 2): 3.9 | Log KOW ([1]; dye compounds of Table 4): 3.9

CC(C)Cc1ccc(C(C)C(=O)O)cc1 (centres unmarked) [Ibuprofen]
Log KOW value [1]: 2.48

CC(C)(Oc1ccc(Cl)cc1)C(=O)O [Clofibric acid]
Log KOW value [1]: 2.88

Clc1ccc(-c2ccc(Cl)c(Cl)c2Cl)cc1 [PCB-60]
estimated hypothetical ke interpolated from KPE ([4]; from regression of FIG. 2): 0.028 day⁻¹ | Log10 KPE [6]: 5.9 L/kg PE

COc1ccc(OC)c(N=Nc2c(O)ccc3ccccc23)c1 [Citrus Red 2]
Log KOW value (may be estimate) [1]: 5.67

O=C1/C(=C2\Nc3ccccc3C2=O)Nc2ccccc21 [Indigo dye]
Log KOW value (may be estimate) [1]: 3.7

Clc1cccc(-c2cc(Cl)cc(Cl)c2)c1 [PCB-36]
elimination rate ke [2]: 0.043 day⁻¹

CC1(C)Nc2cccc3c(N=Nc4ccc(N=Nc5ccccc5)c5ccccc45)ccc(c23)N1 [Sudan Black B]
Log10-transformed ke [3]: -3.1 log10(day^−1) | ke [3]: 0.00072 day⁻¹ | Log KOW ([1]; dye compounds of Table 4): 8.8
